The target of this test is T1, Receptor-interacting serine/threonine-protein kinase 1 (Homo sapiens, UniProt Q13546).
T1 sequence (Q13546 whole entry): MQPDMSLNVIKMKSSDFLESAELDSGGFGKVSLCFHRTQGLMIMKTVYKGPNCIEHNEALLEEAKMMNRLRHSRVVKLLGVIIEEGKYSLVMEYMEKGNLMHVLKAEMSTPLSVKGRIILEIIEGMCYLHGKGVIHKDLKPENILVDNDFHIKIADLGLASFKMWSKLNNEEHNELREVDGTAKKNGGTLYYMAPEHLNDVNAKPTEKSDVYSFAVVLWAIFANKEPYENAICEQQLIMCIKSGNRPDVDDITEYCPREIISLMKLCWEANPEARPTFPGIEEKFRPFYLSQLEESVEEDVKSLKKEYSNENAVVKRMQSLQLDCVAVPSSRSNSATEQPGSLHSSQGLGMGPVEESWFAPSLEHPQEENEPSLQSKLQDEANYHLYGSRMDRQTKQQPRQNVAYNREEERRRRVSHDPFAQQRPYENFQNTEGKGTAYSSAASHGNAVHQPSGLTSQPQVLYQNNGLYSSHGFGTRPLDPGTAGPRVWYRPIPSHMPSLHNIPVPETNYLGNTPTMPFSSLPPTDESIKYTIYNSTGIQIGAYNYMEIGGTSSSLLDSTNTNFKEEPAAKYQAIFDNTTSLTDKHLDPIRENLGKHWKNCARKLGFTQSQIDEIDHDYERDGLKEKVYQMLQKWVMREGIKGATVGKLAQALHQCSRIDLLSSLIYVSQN
Kind of test: RIPK1 Kinase Activity Assay. On the procedure:
ADP-Glo Kinase kit can be used to measure ADP level in kinase activity assay so as to distinguish the inhibitory effects of different compounds on RIPK1 kinase activity. The ADP-Glo assay was usually divided into three steps. Firstly, the kinase converted ATP to ADP and phosphorylated the substrate at the same time; secondly, ATP digestion reagent was added to degrade all ATP in the reaction system; finally, a detection reagent was added to reduce ADP to ATP, and energy from ATP was transferred to […] which thus emitting a chemical luminescence that can be detected. Assay procedure can refer to manufacture's technical manual.(2) Reagent Preparation:1.33× kinase buffer: 5× kinase buffer stock (250 mM of NaCl, 150 mM of MgCl2, 2.5 mg/ml BSA (bovine serum albumin), 0.1% CHAPS (3-[(3-cholamidopropyl)-dimethyl-ammonio]-1-propane sulfonate), and 5 mM of dithiothreitol) was diluted with water to 1.33× kinase buffer;RIPK1 enzyme solution: the kinase was dissolved in 1.33× kinase buffer to make 40 nM as the final working concentration;ATP solution: 10 mM ATP stock solution in water was dissolved in 1.33× kinase buffer to make 10 μM as the final working concentration;4× compound preparation: the compound was diluted in a 3-fold gradient, and finally 4% DMSO aqueous solution containing different concentrations of the compound was obtained. […]

As for `CC(C)n1cncc(-c2ccc(C3(NC(=O)c4nnc(Cc5ccccc5)[nH]4)CC3)cc2)c1=O` [US20240002388, Compound 14], the IC50 was determined as 18 nM.

As a reminder, the IC50 is the concentration needed to halve the response being measured. Read a high IC50 as weaker potency in that assay.

For the origin of these results see BindingDB's records for patent US20240002388 (Hutchison Medipharma, 2024).
